Values quoted from earlier work, collected in US20120095034A1, “PIPERIDINE DERIVATIVES USEFUL AS OREXIN RECEPTOR ANTAGONISTS” (priority 2007, published 2012).
No end group written: not given here.

System: rats
Details: central administration at the onset of the normal sleep period, rat

orexin-A: ligand for the orexin-1 receptor; an agonist of the orexin receptors (QPLPDCCRQKTCSCRLYELLHGAGNHAAGILTL; ends and bridges not checked; cysteine pairing not given here; UniProt O43612 34-66, looked up)
arousal: dose-related increase in arousal
